According to PubChem BioAssay (NCI):
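Values below derive from 48-hour exposures of cells grown in 96-well plates, with endpoints linearly interpolated between the two concentrations bracketing the appropriate inhibition level. Abbreviation: GI50, concentration required for 50% inhibition of growth. TGI: total growth inhibition.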

Key:
Assay in all cases: growth of human tumour cells (NCI), 48 h
[1] = test system: EKVX NSCLC
[2] = test system: CCRF-CEM leukemia
[3] = test system: 786-0 renal
[4] = test system: COLO 205 colon
[5] = test system: HOP-92 NSCLC
[6] = test system: MOLT-4 leukemia
[7] = test system: M14 melanoma
[8] = test system: UACC-62 melanoma
[9] = test system: SN12C renal
[10] = test system: K-562 leukemia

Compound	TGI [1] [µM]	TGI [2] [µM]	TGI [3] [µM]	TGI [4] [µM]	TGI [5] [µM]	TGI [6] [µM]	TGI [7] [µM]	TGI [8] [µM]	TGI [9] [µM]	TGI [10] [µM]	GI50 [2] [µM]	GI50 [3] [µM]	GI50 [5] [µM]	GI50 [6] [µM]	GI50 [4] [µM]	GI50 [10] [µM]	GI50 [8] [µM]	GI50 [9] [µM]	GI50 [1] [µM]	GI50 [7] [µM]
CC1=C2C(O)C(C(C)CO)C(O)CC2(C)C(O)CC1 (configuration not stated)	> 100	> 100	> 100	> 100	> 100	> 100	> 100	> 100	> 100	–	–	–	–	–	–	–	–	–	–	–
C=CCCCCCCCCCCCC1CCC(CC)N1 (configuration not stated)	31.4	29	21.8	14.7	–	17	24.6	29.4	24.3	28.1	–	–	–	–	–	–	–	–	–	–
CCCC(=O)c1c(NOC2OC(COC(C)=O)C(OC(C)=O)C(OC(C)=O)C2OC(C)=O)nc(OC)n(C)c1=O (configuration not stated)	> 100	> 100	> 100	> 100	–	> 100	> 100	> 100	> 100	> 100	–	–	–	–	–	–	–	–	–	–
Cc1nc2ccc(C(F)(F)F)cc2nc1Nc1ccc(Cl)c(Cl)c1	–	26.7	16.1	11.9	12.1	48.2	–	29.1	24.3	–	–	–	–	–	–	–	–	–	–	–
N#CC(C#N)=C(N)/C(C#N)=C\c1ccnc2ccccc12	–	10.3	37.2	> 100	88	47.9	> 100	38.9	60	26.1	–	–	–	–	–	–	–	–	–	–
C=CCn1c(C)nc2cc(Nc3nc(Nc4ccc5nc(C)n(CC=C)c5c4)c4ccccc4n3)ccc21	–	0.76	1.08	–	2.08	0.629	–	–	–	–	0.279	0.312	0.78	0.229	–	–	–	–	–	–
Cc1ccc(C(=O)c2oc3ccc4c(C)cc(=O)oc4c3c2C)cc1	–	> 100	> 100	> 100	95.2	> 100	–	> 100	> 100	> 100	> 100	5.96	27.1	63.6	4.66	5.53	2.66	10.4	–	–
O=C(Nc1ccccc1)c1ccc(Cl)c([N+](=O)[O-])c1	> 100	28.7	20.8	70	–	21.8	29.9	24.9	79.4	14.3	–	–	–	–	–	–	–	–	–	–
COc1cc(-c2nc3ccc(C)cc3[nH]2)ccc1OCC(=O)N=Nc1c(O)[nH]c2ccccc12	> 100	–	3.24	–	3.28	–	3.56	3.31	3.19	–	–	1.76	1.56	–	–	–	1.76	1.68	12.7	1.84
CN1CCN(CCSC2Cc3cc(Cl)ccc3Sc3ccccc32)CC1 (configuration not stated)	29.2	–	9.11	3.26	12.4	7.74	3.66	3.63	23.7	4.9	–	–	–	–	–	–	–	–	–	–
Cc1nc(N)sc1C(=O)/C=C/c1ccc(/C=C/C(=O)c2sc(NC(=O)CCCCCCCCC(=O)Nc3nc(C)c(C(=O)/C=C/c4ccc(/C=C/C(=O)c5sc(N)nc5C)cc4)s3)nc2C)cc1	> 100	> 100	> 100	> 100	–	> 100	> 100	87.8	> 100	> 100	–	–	–	–	–	–	–	–	–	–
COc1ccc2c(c1)sc1nc(-c3ccccc3)c(-c3ccsc3)n12	> 100	–	> 100	6.38	> 100	> 100	> 100	> 100	> 100	> 100	–	7.58	9.89	4.24	2.26	0.878	3.52	12.1	7.76	2.64
CCN(CC)CCn1c2c3ccccc3ccc2c2oc(=O)c3ccccc3c21	> 100	> 100	58.5	> 100	> 100	–	> 100	> 100	–	> 100	–	–	–	–	–	–	–	–	–	–
CCN(CC)CCNc1c(OC)cc(C)c2sc3ccccc3c(=O)c12	32.5	–	28.4	5.02	32.2	4.58	12.1	3.36	9.92	4.04	–	–	–	–	–	–	–	–	–	–
CCOC(=O)C(C)(C)Oc1ccc2c(=O)cc(-c3ccc(Cl)cc3)oc2c1	> 100	> 100	> 100	> 100	–	> 100	> 100	> 100	> 100	> 100	–	–	–	–	–	–	–	–	–	–
CCOC(=O)CCC(=O)C1c2cccc(O)c2C(=O)c2c(O)cccc21	–	3.68	3.26	3.95	3.23	13.7	1.9	1.42	3.22	> 100	–	–	–	–	–	–	–	–	–	–

Compound	TGI [1] [µM]	TGI [2] [µM]	TGI [3] [µM]	TGI [4] [µM]	TGI [5] [µM]	TGI [6] [µM]	TGI [7] [µM]	TGI [8] [µM]	TGI [9] [µM]	TGI [10] [µM]	GI50 [2] [µM]	GI50 [3] [µM]	GI50 [5] [µM]	GI50 [6] [µM]	GI50 [4] [µM]	GI50 [10] [µM]	GI50 [8] [µM]	GI50 [9] [µM]	GI50 [1] [µM]	GI50 [7] [µM]
O=[N+]([O-])c1c(/C=N/Nc2ccccc2)oc(-c2ccc3c(c2)OCO3)c1-c1ccc2c(c1)OCO2	> 100	–	> 100	> 100	> 100	–	> 100	> 100	> 100	14.5	–	–	–	–	–	–	–	–	–	–
Oc1ccc(Br)cc1Sc1cc(Br)ccc1O	–	24.8	35.4	34.9	–	38.4	27.9	–	16.8	32	5.25	18.6	–	7.37	17.8	5.12	–	3.89	–	10.7
COC1=CC23C=CC1[C@@H](c1ccccc1)C2=C(C)C(=O)N3C(=O)NC1CCCCC1 (some centres not stated)	> 100	72.5	32.4	–	47.5	45.9	38.8	47.6	–	> 100	–	–	–	–	–	–	–	–	–	–
Cc1cc2nc3c(C(OC4OC(CO)C(O)C(O)C4O)C(O)CO)nn(-c4ccccc4)c3nc2cc1C (configuration not stated)	> 100	> 100	> 100	–	–	> 100	> 100	> 100	> 100	> 100	–	–	–	–	–	–	–	–	–	–
COc1cc(/C=C/c2cc(C(F)(F)F)[nH]c(=O)n2)ccc1OCc1ccccc1F	–	26.3	33.1	33.9	–	38	26.1	21.6	32.6	98.8	3.94	16.2	–	7.27	19.1	7.55	7.57	7.04	–	12.5
COP1(=O)CC2C(Cl)(Cl)C2(C)C1 (configuration not stated)	–	> 100	> 100	> 100	–	> 100	> 100	> 100	> 100	> 100	–	–	–	–	–	–	–	–	–	–
Cc1nn(C(=O)c2ccccc2O)c2c1C(c1ccccc1)SC(N)=N2 (configuration not stated)	> 10	8.15	> 10	> 10	–	> 10	> 10	9.73	> 10	4.76	–	–	–	–	–	–	–	–	–	–
CCCCC#COP(=O)(OCC)OCC	> 100	> 100	> 100	> 100	–	> 100	> 100	> 100	> 100	–	–	–	–	–	–	–	–	–	–	–
Nc1ccc(C(=O)N/C(=C\C=C\c2ccco2)c2nc3[nH]c(=S)[nH]c(=O)c3[nH]2)cc1	> 100	> 100	> 100	> 100	> 100	> 100	> 100	–	> 100	> 100	–	–	–	–	–	–	–	–	–	–
CN(C)c1ccc(/C=C2\Oc3cc(O)ccc3C2=O)cc1	> 100	> 100	> 100	> 100	–	> 100	> 100	> 100	> 100	> 100	–	–	–	–	–	–	–	–	–	–
CCN(CC)CCCCC1CCN(CC(=O)N2CC(C)C(=O)Nc3ccccc32)CC1 (configuration not stated)	–	> 100	> 100	> 100	> 100	> 100	> 100	> 100	> 100	> 100	–	–	–	–	–	–	–	–	–	–
c1cnc2c(c1)-n1cccc1C1(CCSCC1)NN2	> 100	> 100	> 100	> 100	–	> 100	> 100	–	> 100	> 100	–	–	–	–	–	–	–	–	–	–
Cc1cc(/C=C2\SC(=Nc3ccccc3)N(C3CCCC3)C2=O)c(C)n1-c1ccc(Cl)cc1	–	> 100	> 100	> 100	> 100	> 100	–	> 100	> 100	> 100	> 100	> 100	> 100	> 100	> 100	> 100	> 100	> 100	–	–
COC(=O)c1c(-c2ccccc2)cc2c3cc(-c4ccccc4)c(C(=O)OC)n3c3ccccc3n12	> 100	> 100	> 100	> 100	–	> 100	> 100	> 100	> 100	> 100	–	–	–	–	–	–	–	–	–	–
CC1(C)C=CC[C@]2(C)[C@H]3CC[C@@H]4[C@H]5[C@H](C(=O)/C=C/c6cccnc6)CC[C@]5(CO)CC[C@@]4(C)[C@]3(C)CC[C@@H]12	–	5.34	3.15	3.69	2.05	2.94	–	2.55	2.45	–	0.56	1.64	0.66	0.539	1.69	–	1.23	1.07	–	–
